Source: US10766878B2, “Sulfonylcycloalkyl carboxamide compounds” (Genentech, Inc., priority 2017, dated 2020)
pIC50: −log10 of the molar value. Each block holds one compound with its values, some of them ahead of it.

Target: human TRPA1 (Homo sapiens (Human), UniProt O75762)
Test: hTRPA1 CHO Ca2+ AUC EVO (IC50); FLIPR Tetra block of cinnamaldehyde induced calcium influx
Assay type: cell-based
Conditions: CHO cells expressing TRPA1, 75 uM cinnamaldehyde agonist
Protocol: IC50 values ([…]) of compounds on the human and rat TRPA1 channels were determined using a FLIPR Tetra instrument. CHO cells expressing TRPA1 were plated into 384-well plates, incubated overnight at 37 C, and loaded with BD calcium indicator dye for 1 hr at 37° C. followed by 15 minutes. at room temperature. The assay buffer was Hank's Balanced Salt Solution (HBSS) containing 20 mM HEPES (pH readjusted to 7.4) along with 0.02% BSA.
Following dye load and plate cool down, compounds were added to the cells using FLIPR Tetra. Plates were then incubated with compounds for 20 minutes at room temperature prior to adding agonist. Following this incubation, ˜EC80 concentration of cinnamaldehyde (75 uM for human TRPA1 and 45 uM for rat TRPA1) was added to active the channels and block of cinnamaldehyde induced calcium influx was measured.
IC50 values were fit with a standard Hill function, keeping the Hill coefficient (n) fixed to 1.5. Fixing the Hill coefficient will generally reduce variability of the IC50 determination. The IC50 values were individually examined to make sure the MIN and MAX points were set correctly prior to validation of the results.

Chain of human TRPA1 (O75762 whole entry): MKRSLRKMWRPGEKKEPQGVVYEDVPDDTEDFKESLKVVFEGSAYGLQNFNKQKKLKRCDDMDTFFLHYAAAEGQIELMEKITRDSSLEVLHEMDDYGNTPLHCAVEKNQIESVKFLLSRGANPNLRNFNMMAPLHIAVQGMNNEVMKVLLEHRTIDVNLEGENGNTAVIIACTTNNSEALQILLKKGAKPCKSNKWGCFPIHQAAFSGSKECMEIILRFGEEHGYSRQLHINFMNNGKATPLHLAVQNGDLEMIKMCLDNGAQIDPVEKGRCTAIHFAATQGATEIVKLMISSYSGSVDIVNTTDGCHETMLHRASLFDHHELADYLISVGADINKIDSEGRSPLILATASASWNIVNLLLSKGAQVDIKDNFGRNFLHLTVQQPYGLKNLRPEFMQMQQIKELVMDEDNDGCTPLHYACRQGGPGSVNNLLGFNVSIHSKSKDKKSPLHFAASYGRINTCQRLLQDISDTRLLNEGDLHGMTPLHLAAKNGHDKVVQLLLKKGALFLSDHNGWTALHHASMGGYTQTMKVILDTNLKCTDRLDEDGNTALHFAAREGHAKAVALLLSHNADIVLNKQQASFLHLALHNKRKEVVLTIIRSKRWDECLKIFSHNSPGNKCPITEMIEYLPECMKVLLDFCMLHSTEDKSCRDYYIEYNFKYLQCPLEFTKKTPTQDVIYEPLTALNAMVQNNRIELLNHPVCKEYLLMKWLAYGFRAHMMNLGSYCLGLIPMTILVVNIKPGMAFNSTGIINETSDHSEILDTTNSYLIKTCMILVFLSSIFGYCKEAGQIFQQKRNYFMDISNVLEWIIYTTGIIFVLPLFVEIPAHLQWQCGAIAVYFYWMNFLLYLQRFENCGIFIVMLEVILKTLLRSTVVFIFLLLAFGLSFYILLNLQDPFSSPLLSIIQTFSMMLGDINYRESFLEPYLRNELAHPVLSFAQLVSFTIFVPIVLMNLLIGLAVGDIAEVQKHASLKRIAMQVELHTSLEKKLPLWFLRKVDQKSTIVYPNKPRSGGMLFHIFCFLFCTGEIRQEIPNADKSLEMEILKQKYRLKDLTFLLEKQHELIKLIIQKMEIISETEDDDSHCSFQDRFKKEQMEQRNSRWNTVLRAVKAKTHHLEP

Compound: O=C(NCc1cn(-c2ccc(C(F)(F)F)nc2)nc1C(F)F)[C@@H]1CC[C@@H]1S(=O)(=O)c1ccc(F)cc1 [Example 20, (1S,2S)-N-((3-(difluoromethyl)-1-(6-(trifluoromethyl)pyridin-3-yl)-1H-pyrazol-4-yl)methyl)-2-((4-fluorophenyl)sulfonyl) cyclobutanecarboxamide]
pIC50 (Table 3): 7.01

Compound: O=C(NCc1cn(-c2ccc(C(F)(F)F)nc2)nc1C(F)(F)F)[C@@H]1CCC[C@@H]1S(=O)(=O)c1ccc(F)cc1 [Example 4, (1S,2S)-2-[(4-fluorobenzene)sulfonyl]-N-[[3-(trifluoromethyl)-1-[6-(trifluoromethyl)pyridin-3-yl]-1H-pyrazol-4-yl]methyl]cyclopentane-1-carboxamide]
pIC50 (Table 3): 7.66

Compound: COc1nn(-c2ccc(C(F)(F)F)cc2)cc1CNC(=O)C1CCC1(C)S(=O)(=O)c1ccc(F)cc1 (single isomer, unassigned; enantiomer 2) [Example 23, 2-(4-fluorophenylsulfonyl)-N-((3-methoxy-1-(4-(trifluoromethyl)phenyl)-1H-pyrazol-4-yl)methyl)-2-methylcyclobutanecarboxamide (Enantiomer 2)]
pIC50 (Table 1): 7.42
pIC50 (Table 3): 7.42

Compound: O=C(NCc1cn(-c2ccc(C(F)(F)F)nc2)nc1C(F)(F)F)C1CCC1S(=O)(=O)c1ccc(F)cc1 (single isomer, unassigned; enantiomer 2) [Example 25, 2-(4-fluorophenylsulfonyl)-N-((3-(trifluoromethyl)-1-(6-(trifluoromethyl)pyridin-3-yl)-1H-pyrazol-4-yl)methyl) cyclobutanecarboxamide (Enantiomer 2)]
pIC50 (Table 3): 6.72

Compound: O=C(Cc1cn(-c2cnc(C(F)(F)F)nc2)nc1C(F)F)N[C@@H]1CC[C@@H]1S(=O)(=O)c1ccc(F)cc1 [Example 9, 2-(3-(difluoromethyl)-1-(2-(trifluoromethyl)pyrimidin-5-yl)-1H-pyrazol-4-yl)-N-((1R,2S)-2-(4-fluorophenylsulfonyl)cyclobutyl)acetamide]
pIC50 (Table 1): 7.45
pIC50 (Table 3): 7.45

Compound: O=C(NCc1cn(-c2ccc(C(F)(F)F)cc2)nc1Cl)C1CCC1S(=O)(=O)c1ccc(F)cc1 (single isomer, unassigned; enantiomer 3) [Example 30, N-((3-chloro-1-(4-(trifluoromethyl)phenyl)-1H-pyrazol-4-yl)methyl)-2-(4-fluorophenylsulfonyl) cyclobutanecarboxamide (Enantiomer 3)]
pIC50 (Table 3): 7.25

Compound: COc1nn(-c2ccc(C(F)(F)F)cc2)cc1CNC(=O)C1CCC1(C)S(=O)(=O)c1ccc(F)cc1 (single isomer, unassigned; enantiomer 1) [Example 22, 2-(4-fluorophenylsulfonyl)-N-(3-methoxy-1-(4-(trifluoromethyl)phenyl)-1H-pyrazol-4-yl)methyl)-2-methylcyclobutanecarboxamide (Enantiomer 1)]
pIC50 (Table 3): 7.14

Compound: O=C(NCc1cn(-c2ccc(C(F)(F)F)cc2)nc1Cl)[C@@H]1CC[C@@H]1S(=O)(=O)c1ccc(F)cc1 [Example 28, (1S,2S)-N-((3-chloro-1-(4-(trifluoromethyl)phenyl)-1H-pyrazol-4-yl)methyl)-2-(4-fluorophenylsulfonyl) cyclobutanecarboxamide]
pIC50 (Table 1): 7.71
pIC50 (Table 3): 7.71

Compound: O=C(NCc1cn(-c2ccc(C(F)(F)F)nc2)nc1C(F)(F)F)[C@@H]1CCC[C@@H]1S(=O)(=O)c1ccc(F)cc1 [Example 41, (1S,2S)-2-[(4-fluorobenzene)sulfonyl]-N-[[3-(trifluoromethyl)-1-[6-(trifluoromethyl)pyridin-3-yl]-1H-pyrazol-4-yl]methyl]cyclopentane-1-carboxamide]
pIC50 (Table 3): 7.39

Compound: O=C(NCc1cc(-c2cccc(C(F)(F)F)c2)ncn1)[C@@H]1CC[C@@H]1S(=O)(=O)c1ccc(F)cc1 [Example 21, (1S,2S)-2-((4-fluorophenyl)sulfonyl)-N-((6-(3-(trifluoromethyl)phenyl)pyrimidin-4-yl)methyl)cyclobutanecarboxamide]
pIC50 (Table 3): 6.41

Compound: COc1nn(-c2ccc(C(F)(F)F)cc2)cc1CC(=O)N[C@@H]1CC[C@@H]1S(=O)(=O)c1ccc(F)cc1 [Example 14, N-((1R,2S)-2-((4-fluorophenyl)sulfonyl)cyclobutyl)-2-(3-methoxy-1-(4-(trifluoromethyl)phenyl)-1H-pyrazol-4-yl)acetamide]
pIC50 (Table 1): 8.28
pIC50 (Table 3): 8.28

Compound: O=C(NCc1cn(-c2ccc(C(F)(F)F)nc2)nc1C(F)(F)F)C1CCC1S(=O)(=O)c1ccc(F)cc1 (single isomer, unassigned; enantiomer 3) [Example 26, 2-(4-fluorophenylsulfonyl)-N-((3-(trifluoromethyl)-1-(6-(trifluoromethyl)pyridin-3-yl)-1H-pyrazol-4-yl)methyl) cyclobutanecarboxamide (Enantiomer 3)]
pIC50 (Table 3): 7.04

Compound: O=C(NCc1cn(-c2ccc(C(F)(F)F)nc2)nc1C(F)(F)F)[C@@H]1CC[C@@H]1S(=O)(=O)c1ccc(F)cc1 [Example 24, (1S,2S)-2-(4-fluorophenylsulfonyl)-N-((3-(trifluoromethyl)-1-(6-(trifluoromethyl)pyridin-3-yl)-1H-pyrazol-4-yl)methyl)cyclobutanecarboxamide]
pIC50 (Table 1): 7.38
pIC50 (Table 3): 7.38

Compound: O=C(Cc1cn(-c2cnc(C(F)(F)F)nc2)nc1C1CC1)N[C@@H]1CC[C@@H]1S(=O)(=O)c1ccc(F)cc1 [Example 6, 2-(3-cyclopropyl-1-(2-(trifluoromethyl)pyrimidin-5-yl)-1H-pyrazol-4-yl)-N-((1R,2S)-2-(4-fluorophenylsulfonyl)cyclobutyl)acetamide]
pIC50 (Table 1): 7.33
pIC50 (Table 3): 7.33

The next lines start with the values.

pIC50 (Table 3): 6.67
Compound: COc1nn(-c2ccc(C(F)(F)F)nc2)cc1CC(=O)NC1CCC1S(=O)(=O)c1ccc(F)cc1 (single isomer, unassigned; enantiomer 2) [Example 12, N-(2-((4-fluorophenyl)sulfonyl)cyclobutyl)-2-(3-methoxy-1-(6-(trifluoromethyl)pyridin-3-yl)-1H-pyrazol-4-yl)acetamide (Enantiomer 2)]

pIC50 (Table 1): 7.62
pIC50 (Table 3): 7.62
Compound: CC1(C(=O)NCc2cn(-c3ccc(C(F)(F)F)cc3)nc2Cl)CCCC1S(=O)(=O)c1ccc(F)cc1 (single isomer, unassigned; enantiomer 2) [Example 37, N-((3-chloro-1-(4-(trifluoromethyl)phenyl)-1H-pyrazol-4-yl)methyl)-2-(4-fluorophenylsulfonyl)-1-methylcyclopentanecarboxamide (Enantiomer 2)]

pIC50 (Table 3): 7.05
Compound: CC1(C(=O)NCc2cn(-c3ccc(C(F)(F)F)nc3)nc2Cl)CCCC1S(=O)(=O)c1ccc(F)cc1 (single isomer, unassigned; enantiomer 3) [Example 33, N-((3-chloro-1-(6-(trifluoromethyl)pyridin-3-yl)-1H-pyrazol-4-yl)methyl)-2-(4-fluorophenylsulfonyl)-1-methylcyclopentanecarboxamide (Enantiomer 3)]

pIC50 (Table 3): 7.07
Compound: CC1(C(=O)NCc2cn(-c3ccc(C(F)(F)F)nc3)nc2Cl)CCCC1S(=O)(=O)c1ccc(F)cc1 (single isomer, unassigned; enantiomer 2) [Example 32, N-((3-chloro-1-(6-(trifluoromethyl)pyridin-3-yl)-1H-pyrazol-4-yl)methyl)-2-(4-fluorophenylsulfonyl)-1-methylcyclopentanecarboxamide (Enantiomer 2)]

pIC50 (Table 3): 7.21
Compound: COc1nn(-c2ccc(C(F)(F)F)nc2)cc1CNC(=O)C1(C)CCCC1S(=O)(=O)c1ccc(F)cc1 (single isomer, unassigned; enantiomer 3) [Example 36, 2-(4-fluorophenylsulfonyl)-N-((3-methoxy-1-(6-(trifluoromethyl)pyridin-3-yl)-1H-pyrazol-4-yl)methyl)-1-methylcyclopentanecarboxamide (Enantiomer 3)]

pIC50 (Table 3): 6.80
Compound: COc1nn(-c2ccc(C(F)(F)F)nc2)cc1CNC(=O)[C@@H]1CCC[C@@H]1S(=O)(=O)c1ccc(F)cc1 [Example 40, (1S,2S)-2-(4-fluorophenylsulfonyl)-N-((3-methoxy-1-(6-(trifluoromethyl)pyridin-3-yl)-1H-pyrazol-4-yl)methyl) cyclopentanecarboxamide]

pIC50 (Table 1): 7.73
pIC50 (Table 3): 7.73
Compound: COc1nn(-c2ccc(C(F)(F)F)nc2)cc1CC(=O)N[C@@H]1CC[C@@H]1S(=O)(=O)c1ccc(F)cc1 [Example 13, N-((1R,2S)-2-((4-fluorophenyl)sulfonyl)cyclobutyl)-2-(3-methoxy-1-(6-(trifluoromethyl)pyridin-3-yl)-1H-pyrazol-4-yl)acetamide]

pIC50 (Table 3): 6.66
Compound: COc1nn(-c2ccc(C(F)(F)F)nc2)cc1CNC(=O)C1CCCC1S(=O)(=O)c1ccc(F)cc1 (single isomer, unassigned; enantiomer 2) [Example 39, 2-(4-fluorophenylsulfonyl)-N-((3-methoxy-1-(6-(trifluoromethyl)pyridin-3-yl)-1H-pyrazol-4-yl)methyl) cyclopentanecarboxamide (Enantiomer 2)]

pIC50 (Table 1): 7.48
pIC50 (Table 3): 7.48
Compound: COc1nn(-c2ccc(C(F)(F)F)nc2)cc1CNC(=O)C1(C)CCCC1S(=O)(=O)c1ccc(F)cc1 (single isomer, unassigned; enantiomer 1) [Example 34, 2-(4-fluorophenylsulfonyl)-N-((3-methoxy-1-(6-(trifluoromethyl)pyridin-3-yl)-1H-pyrazol-4-yl)methyl)-1-methylcyclopentanecarboxamide (Enantiomer 1)]
